ChEMBL document CHEMBL1201862, “PubChem BioAssay data set” (2004)
Active and inactive are the calls of the source.

Tests used:
[1] = target: Disintegrin and metalloproteinase domain-containing protein 17 (Homo sapiens, UniProt P78536); experiment: exosite inhibitors of ADAM17, dose response, biochemical (AID 743260)
[2] = inhibition of ADAM10 peptide cleavage – biochemical, FRET peptide substrate, recombinant human ADAM10, selectivity assay for ADAM17 exosite inhibitor project, dose response (AID 743259);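 further: ADAM10 enzyme cleaving a FRET peptide substrate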
[3] = target: T1, Probable nicotinate-nucleotide adenylyltransferase (Staphylococcus aureus (strain N315), UniProt P65502); type: functional, Staphylococcus aureus subsp. aureus N315; details: read-out: IC50_Mean;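 on IC50 Mean: confirmatory dose-response retesting of NadD inhibitor hits first found in an ultra-high-throughput screen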
[4] = target: T1, Probable nicotinate-nucleotide adenylyltransferase; type: functional, Staphylococcus aureus subsp. aureus N315
Galanin receptor type 3 = Galanin receptor type 3 (Homo sapiens, UniProt O60755); experiment: Fluorescence-based cell-based primary high throughput dose response assay to identify antagonists of the Galanin Receptor 3 (GalR3).; type: functional
[5] = non-specific 3'UTR reporter inhibition in Clone20-Shn3RL – cell-based, Renilla luciferase, cherry-picked, counter-screen for Shn3 inhibitor project, dose response (AID 624133); type: functional
[6] = loss of viability in HepG2 cells – cell-based, CellTiter-Glo, cherry-picked, cytotoxicity control for Shn3 inhibitor project, dose response (AID 624134); type: functional
[7] = reduction of Shn3 3'UTR-driven luciferase in osteoblasts – cell-based, Clone20 osteoblasts, firefly luciferase, cherry-picked, dose response (AID 624132); type: functional;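 further: firefly luciferase luminescence from reporter carrying the Shn3 3'UTR in osteoblasts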
cells = type: functional, cell-based; details: HEK-CNG
[8] = toxicity to human hepatoma HepG2 cells – cell-based, cherry-picked samples, cytotoxicity control, dose response (AID 1159577); type: functional
[9] = P. falciparum Dd2 growth inhibitors, dose response, SYBR Green, cherry-picked samples (AID 1159567); type: functional, cell-based
Paired box protein Pax-8 = Paired box protein Pax-8 (Homo sapiens, UniProt Q06710); experiment: PAX8 transcriptional activity inhibition in RMG-I – RMG-I cells, luciferase, cherry-pick, dose response (AID 687027); type: functional, cell-based;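 further: luciferase reporter driven by Pax8 target thyroperoxidase promoter measured by SteadyGlo luminescence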
[10] = OVCAR-3 cell viability loss – plate reader, dry powder samples, PAX8 inhibitor project, dose response (AID 743044); type: functional, cell-based
[11] = OVCAR8 cell viability loss – plate reader, dry powder samples, PAX8 project, dose response (AID 743197); type: functional, cell-based; details: OVCAR-8
[12] = target: T2, Sentrin-specific protease 8 (Homo sapiens, UniProt Q96LD8); type: functional
T2 sequence (Q96LD8 whole entry): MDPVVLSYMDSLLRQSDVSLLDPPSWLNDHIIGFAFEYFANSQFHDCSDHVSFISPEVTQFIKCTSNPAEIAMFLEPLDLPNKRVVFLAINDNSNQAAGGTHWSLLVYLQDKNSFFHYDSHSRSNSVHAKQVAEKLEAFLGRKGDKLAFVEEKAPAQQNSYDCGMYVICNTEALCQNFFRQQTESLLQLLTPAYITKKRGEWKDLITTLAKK

[13] = target: T2, Sentrin-specific protease 8; type: functional; remark: listed apart in the source
[14] = Late stage assay provider results from the probe development effort to identify inhibitors of the Plasmodium falciparum M17 Leucine Aminopeptidase (M17LAP): radiolabel-based cell-based dose response assay to identify compounds that inhibit P. falciparum growth in RBCs Set 2.; type: functional
[15] = T. cruzi growth inhibition in host cells, dose response, cell-based, plate reader, dry powder, set 2 (AID 652275); type: functional
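Wherever EC50 is given: target is galanin receptor GalR3 read with a cAMP biosensor in HEK293 cells.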

Chain of Disintegrin and metalloproteinase domain-containing protein 17 (P78536 whole entry, the tested form may be a part): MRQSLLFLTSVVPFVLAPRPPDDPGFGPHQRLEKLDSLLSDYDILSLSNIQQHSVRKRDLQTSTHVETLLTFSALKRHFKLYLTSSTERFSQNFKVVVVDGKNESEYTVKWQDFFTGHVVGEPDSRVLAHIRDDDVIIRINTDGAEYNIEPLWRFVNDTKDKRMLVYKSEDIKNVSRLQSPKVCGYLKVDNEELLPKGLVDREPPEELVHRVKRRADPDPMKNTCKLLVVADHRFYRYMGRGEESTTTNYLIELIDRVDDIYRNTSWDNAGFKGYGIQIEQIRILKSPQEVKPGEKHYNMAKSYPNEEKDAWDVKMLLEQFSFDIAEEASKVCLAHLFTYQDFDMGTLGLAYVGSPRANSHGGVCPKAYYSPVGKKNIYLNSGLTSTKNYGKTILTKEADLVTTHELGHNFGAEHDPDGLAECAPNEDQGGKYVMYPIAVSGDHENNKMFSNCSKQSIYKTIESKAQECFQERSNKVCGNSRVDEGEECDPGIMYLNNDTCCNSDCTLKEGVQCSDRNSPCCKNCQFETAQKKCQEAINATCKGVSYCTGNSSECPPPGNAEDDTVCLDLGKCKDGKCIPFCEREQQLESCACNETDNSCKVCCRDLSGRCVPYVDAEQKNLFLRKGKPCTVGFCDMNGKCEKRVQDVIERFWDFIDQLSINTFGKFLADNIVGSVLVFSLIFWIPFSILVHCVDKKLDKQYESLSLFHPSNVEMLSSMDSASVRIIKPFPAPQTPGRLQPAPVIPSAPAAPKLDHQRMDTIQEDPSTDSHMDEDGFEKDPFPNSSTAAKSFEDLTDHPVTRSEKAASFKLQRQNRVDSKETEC
Chain of Paired box protein Pax-8 (Q06710 whole entry): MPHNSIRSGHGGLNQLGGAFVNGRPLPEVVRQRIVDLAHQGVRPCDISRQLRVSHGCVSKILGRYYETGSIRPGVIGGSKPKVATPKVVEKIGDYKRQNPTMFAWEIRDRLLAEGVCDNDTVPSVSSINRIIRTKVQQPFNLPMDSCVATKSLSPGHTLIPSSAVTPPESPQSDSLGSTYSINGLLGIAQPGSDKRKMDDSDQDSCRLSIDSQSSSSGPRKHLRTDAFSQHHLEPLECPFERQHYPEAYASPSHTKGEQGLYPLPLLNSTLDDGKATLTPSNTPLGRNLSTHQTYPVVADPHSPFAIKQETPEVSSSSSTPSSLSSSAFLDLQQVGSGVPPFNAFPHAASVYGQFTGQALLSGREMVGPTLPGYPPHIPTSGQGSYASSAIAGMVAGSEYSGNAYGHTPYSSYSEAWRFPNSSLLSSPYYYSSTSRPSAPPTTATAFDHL
T1 sequence (P65502 whole entry): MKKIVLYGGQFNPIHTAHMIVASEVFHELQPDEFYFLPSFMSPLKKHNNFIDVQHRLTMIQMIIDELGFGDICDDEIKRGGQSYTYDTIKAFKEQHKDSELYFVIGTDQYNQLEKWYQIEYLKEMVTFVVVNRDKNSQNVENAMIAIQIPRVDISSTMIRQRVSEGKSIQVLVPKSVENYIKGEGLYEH
Chain of Galanin receptor type 3 (O60755 whole entry): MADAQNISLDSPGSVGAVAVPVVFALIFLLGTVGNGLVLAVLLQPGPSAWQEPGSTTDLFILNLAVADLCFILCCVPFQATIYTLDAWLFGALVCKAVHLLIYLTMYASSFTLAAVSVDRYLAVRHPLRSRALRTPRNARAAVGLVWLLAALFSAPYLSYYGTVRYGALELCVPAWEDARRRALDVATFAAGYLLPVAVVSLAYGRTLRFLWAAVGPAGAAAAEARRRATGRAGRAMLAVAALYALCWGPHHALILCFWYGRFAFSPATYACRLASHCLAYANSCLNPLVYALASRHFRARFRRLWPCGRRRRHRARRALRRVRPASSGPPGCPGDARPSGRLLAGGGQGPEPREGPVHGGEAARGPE

CC(C)(C)OC(=O)N1CCCC(C(=O)Nc2cccc(C(=O)NCCCCc3ccccc3)c2)C1 (stereo not given)
IC50 [1]: > 69.5 µM (inactive)
IC50 [2]: > 69.5 µM (inactive)

CC1(OC(=O)C2CCCC2)C(=O)C=C2C=C(c3ccc(C#N)cc3)OC=C2C1=O (stereo not given)
IC50 [3]: 15.7 µM (active)
IC50 [4]: 6.57 µM (active)

COc1cccc(CN2C(=O)[C@@H]3Cc4c([nH]c5ccccc45)C(C)(C)N3C2=O)c1
IC50 [1]: > 69.4 µM (inactive)
IC50 [2]: > 69.4 µM (inactive)

COc1ccc(-c2coc3c(C(=O)NCc4ccc(OC)c(OC)c4)cccc23)c(C)c1
IC50 (Galanin receptor type 3): 0.358 µM (active)
AC50 [5]: 1.4 µM (active)
AC50 [6]: 1.77 µM (active)
AC50 [7]: 0.722 µM (active)
EC50 (cells): > 29.9 µM (inactive)

C[C@@H]1CN([C@@H](C)CO)C(=O)c2cccc(NC(=O)Nc3cccc4ccccc34)c2O[C@@H]1CN(C)Cc1ccc(C(=O)Nc2ccccc2N)cc1
AC50 [8]: 12.1 µM (active)
AC50 [9]: < 0.3 µM (active)

Cc1ccc(S(=O)(=O)Nc2ccc3c(c2)C(=O)N([C@H](C)CO)C[C@H](C)[C@@H](CN(C)S(=O)(=O)c2cccs2)OCCCC[C@H](C)O3)cc1
AC50 (Paired box protein Pax-8): 4.23 µM (active)
AC50 [10]: 20.5 µM (active)
AC50 [11]: > 70 µM (inactive)

COCCNC(=O)C[C@@H]1C[C@H]2c3cc(NC(=O)Nc4ccc(C(F)(F)F)cc4)ccc3O[C@H]2[C@H](CO)O1
AC50 (Paired box protein Pax-8): 26.6 µM (active)
AC50 [11]: > 70 µM (inactive)

Cc1[nH]n(-c2ccccc2)c(=O)c1S(=O)(=O)c1ccccc1
IC50 [12]: 4.99 µM (active)
IC50 [13]: 12.8 µM (active)

CCCCOc1ccc(CNc2c(N(C)O)c(=O)c2=O)cc1
IC50 [14]: 19 µM (inactive)

CCOc1ccc(CC(=O)NO)cc1
IC50 [14]: 7.2 µM (active)

CC(C)N1C[C@H](C)[C@@H](CN(C)Cc2ccc(Cl)c(Cl)c2)Oc2c(cccc2-c2cn(-c3ccncc3)nn2)C1=O
AC50 [15]: 0.00149 µM (active)

C[C@H](CO)N1C[C@H](C)[C@H](CN(C)Cc2ccc(Oc3ccccc3)cc2)Oc2ccc(NC(=O)Nc3ccc(C(F)(F)F)cc3)cc2C1=O
AC50 [8]: 7.87 µM (active)
AC50 [9]: 9.62 µM (active)
